Patent US7462600B2, “Macrolides” (Pfizer Inc, priority 2004, dated 2008)
Converted amounts (≈) assume the structure as drawn. Like-named read-outs stand apart in the source and are kept apart here.

What was measured:
Type in all cases: cell-based
[1] = test system: Streptococcus pyogenes 1079; assay: MIC, microtiter broth dilution (NCCLS M100-S14), S. pyogenes 1079 (ermB)
Summary of the method: (§1)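 DMSO stocks, 40 mg/ml; trays scored for MIC following M100-S14 (NCCLS).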

[2] = test system: Streptococcus pneumoniae 1016; assay: MIC, microtiter broth dilution (NCCLS M100-S14), S. pneumoniae 1016 (susceptible)
Summary of the method: as §1

[3] = test system: Streptococcus pneumoniae 1095; conditions: microtiter broth dilution
Summary of the method: as §1

[4] = test system: Streptococcus pneumoniae 1175; conditions: microtiter broth dilution
Summary of the method: as §1

[5] = test system: Haemophilus influenzae 1218; assay: MIC, microtiter broth dilution (NCCLS M100-S14), H. influenzae 1218 (susceptible)
Summary of the method: as §1

[6] = S. pneumoniae 1016 (susceptible)
[7] = H. influenzae 1218 (susceptible)

SMILES	MIC S. pyogenes 1079 ([1]; Streptococcus pyogenes 1079) [µg/mL]	MIC S. pneumo. 1016 ([2]; Streptococcus pneumoniae 1016) [µg/mL]	MIC S. pneumo. 1095 ([3]; Streptococcus pneumoniae 1095) [µg/mL]	MIC S. pneumo. 1175 ([4]; Streptococcus pneumoniae 1175) [µg/mL]	MIC H. influenzae 1218 ([5]; Haemophilus influenzae 1218) [µg/mL]	MIC S. pyogenes 1079 ([1]; S. pyogenes 1079 (ermB)) [µg/mL]	MIC S. pneumo. 1016 [2, 6] [µg/mL]	MIC S. pneumo. 1095 ([3]; S. pneumoniae 1095 (ermB)) [µg/mL]	MIC S. pneumo. 1175 ([4]; S. pneumoniae 1175 (mefA)) [µg/mL]	MIC H. influenzae 1218 [5, 7] [µg/mL]
CCC1OC(=O)C(C)C(=O)C(C)C(OC2OC(C)CC(N(C)C)C2O)C(C)(OC)CC(C)C(=O)C(C)C2N(C3CN(S(=O)(=O)c4ccc(-n5cccn5)cc4)C3)C(=O)OC12C (stereo not shown) [Example 3.44, 3-descladinosyl-11,12-dideoxy-6-O-methyl-3-oxo-12,11-(oxycarbonyl-(1-(4-(1H-pyrazol-1-yl)benzenesulfonyl)-azetidin-3-yl)-imino)-erythromycin A]	0.12 (≈ 0.137 µM)	<0.06	<0.06	<0.06	0.25 (≈ 0.286 µM)					
CC[C@H]1OC(=O)[C@H](C)C(=O)[C@H](C)[C@@H](O[C@@H]2O[C@H](C)C[C@H](N(C)C)[C@H]2O)[C@](C)(OC)C[C@@H](C)C(=O)[C@H](C)[C@H]2N(CC3(O)CN(C(=O)c4cccc5cccnc45)C3)C(=O)O[C@]12C [7.20]						>64.00	<0.06	2 (≈ 2.34 µM)	1 (≈ 1.17 µM)	0.5 (≈ 0.586 µM)
CCC1OC(=O)C(C)C(=O)C(C)C(OC2OC(C)CC(N(C)C)C2O)C(C)(OC)CC(C)C(=O)C(C)C2N(CC3CCCN3C(=O)c3cncc4ccccc34)C(=O)OC12C.O=CO (stereo not shown) [10.20]						64	<0.06	<0.06	0.12	2
CCC1OC(=O)C(C)C(=O)C(C)C(OC2OC(C)CC(N(C)C)C2O)C(C)(OC)CC(C)C(=O)C(C)C2N(C3CN(S(=O)(=O)c4ccc5c(cnn5C)c4)C3)C(=O)OC12C (stereo not shown) [Example 3.94, 3-descladinosyl-11,12-dideoxy-6-O-methyl-3-oxo-12,11-(oxycarbonyl-(1-(1-methyl-1H-indazole-5-sulfonyl)-azetidin-3-yl)-imino)erythromycin A]	0.25 (≈ 0.29 µM)	<0.06	0.12 (≈ 0.139 µM)	<0.06	0.25 (≈ 0.29 µM)					
CCC1OC(=O)C(C)C(=O)C(C)C(OC2OC(C)CC(N(C)C)C2O)C(C)(OC)CC(C)C(=O)C(C)C2N(CC3(O)CN(S(=O)(=O)c4cccc5cccnc45)C3)C(=O)OC12C (stereo not shown) [7.06]						>64.00	<0.06	32 (≈ 36 µM)	0.5 (≈ 0.562 µM)	0.5 (≈ 0.562 µM)
CC[C@H]1OC(=O)[C@H](C)[C@@H](OC(=O)N2CCCC2)[C@H](C)[C@@H](O[C@@H]2O[C@H](C)C[C@H](N(C)C)[C@H]2O)[C@](C)(OC)C[C@@H](C)C(=O)[C@H](C)[C@H]2N(CC3CN(Cc4nc5ccccc5[nH]4)C3)C(=O)O[C@]12C [Example 5.11, 2-R^2: (1H-benzo[d]imidazol-2-yl)methyl; R^#: pyrrolidin-1-yl]	32 (≈ 35.1 µM)	<0.06	1 (≈ 1.1 µM)	<0.06	1 (≈ 1.1 µM)					
CCC1OC(=O)C(C)C(=O)C(C)C(OC2OC(C)CC(N(C)C)C2O)C(C)(OC)CC(C)C(=O)C(C)C2N(C3CN(Cc4c(Cl)cnc5[nH]cnc45)C3)C(=O)OC12C (stereo not shown) [Example 1.100, 3-descladinosyl-11,12-dideoxy-6-O-methyl-3-oxo-12,11-(oxycarbonyl-(1-(6-chloro-3H-imidazo[4,5-b]pyridine-7-methyl)-azetidin-3-yl)-imino)-erythromycin A]	0.125 (≈ 0.15 µM)	<0.063	<0.063	<0.063	0.5 (≈ 0.6 µM)					
CCC1OC(=O)C(C)C(=O)C(C)C(OC2OC(C)CC(N(C)C)C2O)C(C)(OC)CC(C)C(=O)C(C)C2N(CC3CCCN3C(=O)c3cc4cccnc4nc3C)C(=O)OC12C (stereo not shown) [10.39]						>64.00	<0.06	<0.06	0.5 (≈ 0.577 µM)	2 (≈ 2.31 µM)
